# According to article PMC8523698, “Preclinical characterization of an intravenous coronavirus 3CL protease inhibitor for the potential treatment of COVID19” (Nature Communications, 2021):
# “And” between values parts separate entries of the source, which are not always exact repeats. Equal entries are not always repeated.
# How the values were obtained:
# [1] = system: Salmonella typhimurium strains and E. coli strain WP2 uvrA; test: Bacterial reverse mutation assay; conditions: with and without metabolic activation
# CYP2C8 = biological target: T1, CYP2C8 (Homo sapiens, UniProt P10632); test: Reversible CYP inhibition in human liver microsomes; conditions: for activity at 0.1 µM / activity at 0.214 µM / activity at 0.979 µM / activity at 2.09 µM / activity at 4.48 µM / activity at 20.5 µM / activity at 43.8 µM / activity at 93.5 µM / activity at 200 µM: pH 7.4, Percent of Control Activity
# T1 sequence (P10632 1-490): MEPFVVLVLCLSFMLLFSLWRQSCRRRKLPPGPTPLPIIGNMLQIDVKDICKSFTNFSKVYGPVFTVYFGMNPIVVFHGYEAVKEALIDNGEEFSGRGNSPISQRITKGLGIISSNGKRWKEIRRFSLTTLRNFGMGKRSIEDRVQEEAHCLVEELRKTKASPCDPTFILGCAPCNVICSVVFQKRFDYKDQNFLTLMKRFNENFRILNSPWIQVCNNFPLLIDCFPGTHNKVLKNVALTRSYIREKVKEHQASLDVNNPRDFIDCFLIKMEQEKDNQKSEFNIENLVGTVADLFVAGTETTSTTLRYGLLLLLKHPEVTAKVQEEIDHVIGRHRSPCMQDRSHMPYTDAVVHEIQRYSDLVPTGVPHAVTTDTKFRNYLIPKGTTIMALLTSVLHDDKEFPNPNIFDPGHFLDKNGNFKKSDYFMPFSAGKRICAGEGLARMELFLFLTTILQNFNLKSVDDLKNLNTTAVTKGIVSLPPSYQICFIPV
# hERG channel = hERG channel (Homo sapiens, UniProt Q12809); test: hERG potassium channel current assay; conditions: 300 µM vs projected Cmax at projected human efficacious dose
# [2] = In vitro micronucleus formation; type: cell-based
# CYP2D6 = CYP2D6 (Homo sapiens, UniProt P10635); test: Reversible CYP inhibition in human liver microsomes
# CYP2D6, sequence (P10635 whole entry): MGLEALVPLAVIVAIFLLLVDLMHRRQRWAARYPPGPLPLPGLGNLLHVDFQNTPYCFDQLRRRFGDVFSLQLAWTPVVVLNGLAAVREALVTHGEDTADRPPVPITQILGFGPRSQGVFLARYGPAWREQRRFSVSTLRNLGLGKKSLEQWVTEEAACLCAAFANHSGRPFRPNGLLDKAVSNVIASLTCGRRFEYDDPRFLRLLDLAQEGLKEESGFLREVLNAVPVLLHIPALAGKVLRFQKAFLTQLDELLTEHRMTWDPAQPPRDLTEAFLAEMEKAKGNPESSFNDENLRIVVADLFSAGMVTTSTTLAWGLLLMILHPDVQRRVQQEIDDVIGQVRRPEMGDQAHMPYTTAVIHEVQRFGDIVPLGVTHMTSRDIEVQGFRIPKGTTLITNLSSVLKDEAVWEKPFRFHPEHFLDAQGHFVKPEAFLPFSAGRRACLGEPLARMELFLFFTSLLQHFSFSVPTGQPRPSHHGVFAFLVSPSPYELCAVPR
# hERG channel, sequence (Q12809 whole entry): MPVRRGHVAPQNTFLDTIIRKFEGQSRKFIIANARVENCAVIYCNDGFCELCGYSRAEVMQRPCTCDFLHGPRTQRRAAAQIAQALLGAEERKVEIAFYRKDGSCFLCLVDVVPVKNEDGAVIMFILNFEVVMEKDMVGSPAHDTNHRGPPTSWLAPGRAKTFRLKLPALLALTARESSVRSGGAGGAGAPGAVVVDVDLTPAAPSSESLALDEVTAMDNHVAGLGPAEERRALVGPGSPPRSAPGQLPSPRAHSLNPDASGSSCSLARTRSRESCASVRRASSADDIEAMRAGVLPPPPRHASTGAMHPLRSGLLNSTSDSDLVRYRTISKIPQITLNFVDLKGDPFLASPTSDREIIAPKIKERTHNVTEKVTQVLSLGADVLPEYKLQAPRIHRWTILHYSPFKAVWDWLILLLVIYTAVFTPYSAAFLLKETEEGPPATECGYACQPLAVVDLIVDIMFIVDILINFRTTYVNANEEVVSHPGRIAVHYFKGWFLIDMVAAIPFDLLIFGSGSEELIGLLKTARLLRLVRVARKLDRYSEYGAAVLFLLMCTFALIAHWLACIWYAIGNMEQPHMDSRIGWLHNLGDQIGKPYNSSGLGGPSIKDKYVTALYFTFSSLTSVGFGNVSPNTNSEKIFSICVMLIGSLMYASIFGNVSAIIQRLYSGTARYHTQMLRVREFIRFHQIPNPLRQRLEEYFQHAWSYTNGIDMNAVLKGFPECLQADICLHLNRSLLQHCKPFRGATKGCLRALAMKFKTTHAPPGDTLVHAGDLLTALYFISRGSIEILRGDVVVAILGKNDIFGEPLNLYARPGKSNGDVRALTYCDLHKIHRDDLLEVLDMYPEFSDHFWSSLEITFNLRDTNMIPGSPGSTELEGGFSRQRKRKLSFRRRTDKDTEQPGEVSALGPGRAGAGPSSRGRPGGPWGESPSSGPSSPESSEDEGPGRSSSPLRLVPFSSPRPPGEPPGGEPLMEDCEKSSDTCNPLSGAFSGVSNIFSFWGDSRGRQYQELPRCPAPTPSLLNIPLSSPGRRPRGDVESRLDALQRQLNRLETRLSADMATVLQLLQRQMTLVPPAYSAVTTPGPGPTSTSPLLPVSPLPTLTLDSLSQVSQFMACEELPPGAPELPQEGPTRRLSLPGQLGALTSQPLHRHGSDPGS
compound,measurement,setting,value
COc1cccc2[nH]c(C(=O)N[C@@H](CC(C)C)C(=O)N[C@@H](C[C@@H]3CCNC3=O)C(=O)CO)cc12 [PF-00835231],bacterial reverse mutation assay result,[1],negative
same,Percent of Control Activity,"CYP2C8; CYP 2C8, 0.1 µM, 30-Minute Preincubation, 0.1 µM",98.0% and 103.9%
same,Percent of Control Activity,"CYP2C8; CYP 2C8, 0.1 µM, Zero-Minute Preincubation, 0.1 µM",104.8% and 112.8%
same,Percent of Control Activity,"CYP2C8; CYP 2C8, 0.214 µM, 30-Minute Preincubation, 0.214 µM",93.1% and 90.6%
same,Percent of Control Activity,"CYP2C8; CYP 2C8, 0.214 µM, Zero-Minute Preincubation, 0.214 µM",107.5% and 109.2%
same,Percent of Control Activity,"CYP2C8; CYP 2C8, 0.979 µM, 30-Minute Preincubation, 0.979 µM",105.7% and 92.9%
same,Percent of Control Activity,"CYP2C8; CYP 2C8, 2.09 µM, 30-Minute Preincubation, 2.09 µM",93.9% and 94.5%
same,Percent of Control Activity,"CYP2C8; CYP 2C8, 2.09 µM, Zero-Minute Preincubation, 2.09 µM",100.1% and 105.9%
same,Percent of Control Activity,"CYP2C8; CYP 2C8, 4.48 µM, 30-Minute Preincubation, 4.48 µM",91.6% and 90.7%
same,Percent of Control Activity,"CYP2C8; CYP 2C8, 4.48 µM, Zero-Minute Preincubation, 4.48 µM",107.2% and 107.1%
same,Percent of Control Activity,"CYP2C8; CYP 2C8, 20.5 µM, 30-Minute Preincubation, 20.5 µM",94.2% and 94.7%
same,Percent of Control Activity,"CYP2C8; CYP 2C8, 20.5 µM, Zero-Minute Preincubation, 20.5 µM",95.8% and 108.3%
same,Percent of Control Activity,"CYP2C8; CYP 2C8, 43.8 µM, 30-Minute Preincubation, 43.8 µM",90.3%
same,Percent of Control Activity,"CYP2C8; CYP 2C8, 43.8 µM, Zero-Minute Preincubation, 43.8 µM",96.9% and 95.4%
same,Percent of Control Activity,"CYP2C8; CYP 2C8, 93.5 µM, 30-Minute Preincubation, 93.5 µM",68.7% and 77.7%
same,Percent of Control Activity,"CYP2C8; CYP 2C8, 93.5 µM, Zero-Minute Preincubation, 93.5 µM",87.1% and 95.1%
same,Percent of Control Activity,"CYP2C8; CYP 2C8, 200 µM, 30-Minute Preincubation, 200 µM",65.4% and 64.5%
same,Percent of Control Activity,"CYP2C8; CYP 2C8, 200 µM, Zero-Minute Preincubation, 200 µM",78.5% and 82.2%
same,IC50,"CYP2C8; human, microsomes, pH 7.4",> 200 µM
same,activity at 0.1 µM,"CYP2C8; human, microsomes, CYP 2C8, 0.1 µM, 30-Minute Preincubation",97.4%
same,activity at 0.1 µM,"CYP2C8; human, microsomes, CYP 2C8, 0.1 µM, Zero-Minute Preincubation",99.7%
same,activity at 0.214 µM,"CYP2C8; human, microsomes, CYP 2C8, 0.214 µM, 30-Minute Preincubation",91%
same,activity at 0.214 µM,"CYP2C8; human, microsomes, CYP 2C8, 0.214 µM, Zero-Minute Preincubation",103%
same,activity at 0.979 µM,"CYP2C8; human, microsomes, CYP 2C8, 0.979 µM, 30-Minute Preincubation",98.3%
same,activity at 0.979 µM,"CYP2C8; human, microsomes, CYP 2C8, 0.979 µM, Zero-Minute Preincubation",108%
same,activity at 2.09 µM,"CYP2C8; human, microsomes, CYP 2C8, 2.09 µM, 30-Minute Preincubation",92.8%
same,activity at 2.09 µM,"CYP2C8; human, microsomes, CYP 2C8, 2.09 µM, Zero-Minute Preincubation",110%
same,activity at 4.48 µM,"CYP2C8; human, microsomes, CYP 2C8, 4.48 µM, 30-Minute Preincubation",85.8%
same,activity at 4.48 µM,"CYP2C8; human, microsomes, CYP 2C8, 4.48 µM, Zero-Minute Preincubation",104%
same,activity at 20.5 µM,"CYP2C8; human, microsomes, CYP 2C8, 20.5 µM, 30-Minute Preincubation",86%
same,activity at 20.5 µM,"CYP2C8; human, microsomes, CYP 2C8, 20.5 µM, Zero-Minute Preincubation",93.6%
same,activity at 43.8 µM,"CYP2C8; human, microsomes, CYP 2C8, 43.8 µM, 30-Minute Preincubation",82.6%
same,activity at 43.8 µM,"CYP2C8; human, microsomes, CYP 2C8, 43.8 µM, Zero-Minute Preincubation",91.9%
same,activity at 93.5 µM,"CYP2C8; human, microsomes, CYP 2C8, 93.5 µM, 30-Minute Preincubation",76.7%
same,activity at 93.5 µM,"CYP2C8; human, microsomes, CYP 2C8, 93.5 µM, Zero-Minute Preincubation",91.2%
same,activity at 200 µM,"CYP2C8; human, microsomes, CYP 2C8, 200 µM, 30-Minute Preincubation",62.8%
same,activity at 200 µM,"CYP2C8; human, microsomes, CYP 2C8, 200 µM, Zero-Minute Preincubation",79.6%
same,hERG margin in reference to projected unbound human Cmax,hERG channel,600 fold
same,micronuclei formation,[2],did not induce micronuclei formation
same,Percent of Control Activity,"CYP2D6; CYP 2D6, 0.1 µM, 30-Minute Preincubation, 0.1 µM",92.9% and 101.4%
same,Percent of Control Activity,"CYP2D6; CYP 2D6, 0.1 µM, Zero-Minute Preincubation, 0.1 µM",87.8% and 108.7%
same,Percent of Control Activity,"CYP2D6; CYP 2D6, 0.214 µM, 30-Minute Preincubation, 0.214 µM",106.1%
same,Percent of Control Activity,"CYP2D6; CYP 2D6, 0.214 µM, Zero-Minute Preincubation, 0.214 µM",101.0% and 100.2%
same,Percent of Control Activity,"CYP2D6; CYP 2D6, 0.979 µM, 30-Minute Preincubation, 0.979 µM",107.3% and 99.0%
same,Percent of Control Activity,"CYP2D6; CYP 2D6, 0.979 µM, Zero-Minute Preincubation, 0.979 µM",96.4% and 103.2%
same,Percent of Control Activity,"CYP2D6; CYP 2D6, 2.09 µM, 30-Minute Preincubation, 2.09 µM",102.6% and 103.8%
same,Percent of Control Activity,"CYP2D6; CYP 2D6, 2.09 µM, Zero-Minute Preincubation, 2.09 µM",96.1% and 107.2%
same,Percent of Control Activity,"CYP2D6; CYP 2D6, 4.48 µM, 30-Minute Preincubation, 4.48 µM",102.2% and 99.7%
same,Percent of Control Activity,"CYP2D6; CYP 2D6, 4.48 µM, Zero-Minute Preincubation, 4.48 µM",105.0% and 106.1%
same,Percent of Control Activity,"CYP2D6; CYP 2D6, 20.5 µM, 30-Minute Preincubation, 20.5 µM",113.8% and 117.9%
same,Percent of Control Activity,"CYP2D6; CYP 2D6, 20.5 µM, Zero-Minute Preincubation, 20.5 µM",108.8%
same,Percent of Control Activity,"CYP2D6; CYP 2D6, 43.8 µM, 30-Minute Preincubation, 43.8 µM",122.8% and 114.4%
same,Percent of Control Activity,"CYP2D6; CYP 2D6, 43.8 µM, Zero-Minute Preincubation, 43.8 µM",99.1% and 109.2%
same,Percent of Control Activity,"CYP2D6; CYP 2D6, 93.5 µM, 30-Minute Preincubation, 93.5 µM",122.0% and 119.6%
same,Percent of Control Activity,"CYP2D6; CYP 2D6, 93.5 µM, Zero-Minute Preincubation, 93.5 µM",100.2%
same,Percent of Control Activity,"CYP2D6; CYP 2D6, 200 µM, 30-Minute Preincubation, 200 µM",102.0% and 91.1%
